Results on five compounds are retold here after ChEMBL document CHEMBL1201862, “PubChem BioAssay data set” (2004).

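Where inhibition never reached the appropriate level, the endpoint shown equals the highest concentration tested. Otherwise, values were interpolated linearly from a five-concentration, 48-hour dose response in 96-well plates. GI50 marks 50% less growth.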 Activity calls are given as the source filed them. Rule as the data show it: active = GI50 up to about 1.1 µM and inactive = higher.

What all share (assay): inhibition of tumour cell growth, NCI panel, 48 h
Assay [1] has as its system ACHN.
Assay [2] concerns BT-549.
Assay [3] has as its system CAKI-1.
Assay [4] relates to COLO 205.
In assay [5] the test system is DU-145.
For assay [6], the system named is EKVX.
The subject of assay [7] is HCT-15.
For assay [8], the system named is HOP-92.
For assay [9], the system named is Hs-578T.
The subject of assay [10] is LOX IMVI.
For assay [11], the system named is MCF7.
For assay [12], the system named is MOLT-4.
In assay [13] the test system is NCI-H226.
Assay [14] has as its system PC-3.
Assay [15] deals with SF-539.
Assay [16] deals with SK-MEL-5.
Assay [17] deals with SNB-19.
Assay [18] relates to UACC-62.
Assay [19] deals with SNB-75.

Turning to `NS(=O)(=O)c1ccc(Nc2c3ccccc3nc3c(C(=O)NCCO)cccc23)cc1`, the GI50 is 0.252 µM (active) in assay [1]; 0.145 µM (active) in assay [2]; 0.198 µM (active) in assay [3]; 0.0762 µM (active) in assay [4]; 0.165 µM (active) in assay [5]; 0.251 µM (active) in assay [6]. In addition, the GI50 in [7] was 0.169 µM; in assay [8], 0.148 µM (active); in [9], 0.188 µM (active); in assay [10], 0.124 µM (active); in assay [11], 0.0373 µM (active); in assay [12], 0.0241 µM (active). Besides, the GI50 in assay [13] was 0.113 µM (active); in [14], 0.177 µM (active); in [15], 0.131 µM (active); in assay [16], 0.0853 µM (active); in assay [17], 0.0977 µM (active); in assay [18] it was 0.135 µM (active).

As to `CC1(C)C2CC(=O)C1(C)C(O)C2Br` (stereo not given), the GI50 in [1] is > 100 µM (inactive); in assay [2] it was > 100 µM (inactive); in assay [5], > 100 µM (inactive); in [6], > 100 µM (inactive); in assay [7] it was more than 100 µM; in assay [8] it was > 100 µM (inactive). The GI50 is 98.2 µM (inactive) in assay [9]; > 100 µM (inactive) in assay [11]; > 100 µM (inactive) in assay [12]; > 100 µM (inactive) in assay [13]; > 100 µM (inactive) in assay [14]; > 100 µM (inactive) in [15]. Further, the GI50 in assay [16], in [17] and in assay [18] was > 100 µM (inactive) each time.

As for `O=C1C(O)=C(CCCCCCCCC2CCCCC2)C(=O)c2ccccc21` [MENOCTONE], the GI50 was 2.93 µM (inactive) in assay [1]; 11.7 µM (inactive) in [2]; 5.5 µM (inactive) in assay [3]; 8.45 µM (inactive) in assay [4]; 7.45 µM (inactive) in assay [5]; 4.55 µM (inactive) in assay [6]. The GI50 in assay [7] is 4.69 µM; in assay [8], 10 µM (inactive); in assay [9] it was 12.4 µM (inactive); in assay [10], 3.6 µM (inactive); in [11], 6.41 µM (inactive); in assay [12] it was 2.58 µM (inactive). In addition, the GI50 in [14] was 5.09 µM (inactive); in assay [15] it was 7.53 µM (inactive); in assay [16], 10.4 µM (inactive); in [17] it was 9.86 µM (inactive); in assay [19], 10.6 µM (inactive); in assay [18], 6.05 µM (inactive).

As to `NCC(O)CSCc1ccc(Cl)cc1` (stereo not given), the GI50 is > 100 µM (inactive) in assay [1]; > 100 µM (inactive) in [2]; > 100 µM (inactive) in [3]; > 100 µM (inactive) in assay [4]; > 100 µM (inactive) in [5]; more than 100 µM in assay [7]. The GI50 in assay [8], in assay [9], in assay [10], in assay [11], in assay [12] and in assay [13] was > 100 µM (inactive) throughout. Moreover, the GI50 in [14], in [16], in assay [17] and in assay [18] was > 100 µM (inactive) throughout.

Consider `CC(C(N)C(=O)NC(C(=O)O)C1OC(n2ccc(=O)[nH]c2=O)C(O)C1O)C(O)c1ccc(O)cn1` (stereo not given), for which the GI50 in assay [1], in [2], in assay [3], in [4], in [5] and in [6] was > 100 µM (inactive) each time. The GI50 in assay [7] is more than 100 µM; in assay [8] it was > 100 µM (inactive); in [9], > 100 µM (inactive); in assay [10], > 100 µM (inactive); in [11] it was > 100 µM (inactive); in assay [12] it was > 100 µM (inactive). Further, the GI50 in assay [14], in assay [15], in [16], in [17], in assay [19] and in assay [18] was > 100 µM (inactive) throughout.
